According to patent publication US9593144B2, “FPR1 antagonist derivatives and use thereof” (CHANG GUNG UNIVERSITY, priority 2014, dated 2017):
Like-named read-outs stand apart in the source and are kept apart here. Square brackets hold non-standard residues; d marks the D form. Peptide text beside a SMILES is read from it. * marks the point of attachment. PhAc = O=C(Cc1ccccc1)*

Key:
human neutrophils [1] = test: cells; format: cell-based; conditions: fMLP/CB, mean ± SEM
Experimental: Degranulation of azurophilic granules was determined by elastase release as described above. Experiments were performed using MeO-Suc-[…]-nitroanilide as the elastase substrate. […] Results are expressed as the percentage of elastase release in the drug-free control group, DMSO. Tables 5 and 6 explore whether there is an anti-inflamatory effect in the dipeptide derivatives. Because ferricytochrome c cannot penetrate cell membranes, it reacts with superoxide anion extracellularly. Also, there are absorptive reactions at 550 nm, and differences among the absorptive reactions can be used to evaluate the influence on the release of superoxide anion. The elastase is released by degranulation as the neutrophil is activated. Tables 5 and 6 use the substrate, MeO-Suc-[…]-nitroanilide, with the specificity for reacting with the elastase so as to evaluate the influence of the candidate compound on the elastase release. Blood was taken from healthy human donors (20-32 years old) by venipuncture, following a protocol approved by the Institutional Review Board at Chang Gung Memorial Hospital. Neutrophils were isolated by a standard method of dextran sedimentation prior to centrifugation in a Ficoll Hypaque gradient and the hypotonic lysis of erythrocytes. […] The degranulation of azurophilic granules was determined by elastase release as described above. Experiments were performed using MeO-Suc-[…]-nitroanilide as the elastase substrate. Briefly, after supplementation with MeO-Suc-[…]-nitroanilide ([…] neutrophils (6×10^5 ml^-1) were equilibrated at 37° C. for 2 min and incubated with drugs for 5 min. […] The results are expressed as the percentage of elastase release in the drug-free control group.

human neutrophils [2] = test: cells; format: cell-based; conditions: human neutrophils, fMLP/CB, mean ± SEM, n = 3, read-out: Anti-inflammation O2•− generation (IC50)
Description: Tables 5 and 6 explore whether there is an anti-inflamatory effect in the dipeptide derivatives. Because ferricytochrome c cannot penetrate cell membranes, it reacts with superoxide anion extracellularly. Also, there are absorptive reactions at 550 nm, and differences among the absorptive reactions can be used to evaluate the influence on the release of superoxide anion. The elastase is released by degranulation as the neutrophil is activated. Tables 5 and 6 use the substrate, MeO-Suc-Ala-Ala-Pro-Val-p-nitroanilide, with the specificity for reacting with the elastase so as to evaluate the influence of the candidate compound on the elastase release.
Blood was taken from healthy human donors (20-32 years old) by venipuncture, following a protocol approved by the Institutional Review Board at Chang Gung Memorial Hospital. Neutrophils were isolated by a standard method of dextran sedimentation prior to centrifugation in a Ficoll Hypaque gradient and the hypotonic lysis of erythrocytes.
The evaluation of O2.^− generation was based on the SOD-inhibitable reduction of ferricytochrome c. In brief, after supplementation with 0.5 mg ml^−1 ferricytochrome c and 1 mM Ca^2+, neutrophils were equilibrated at 37° C. for 2 min and incubated with drugs […].

[3] = Neutrophil, n = 3, Table 1, read-out: Anti-inflammation NE release (IC50)

Row | SMILES | melting point [°C] | IC50 (human neutrophils [1]; n = 3, Table 3, read-out: Anti-inflammation NE release (IC50)) [µM] | IC50 (human neutrophils [2]; Table 3) [µM] | IC50 (human neutrophils [1]; [3]) [µM] | IC50 (human neutrophils [2]; Neutrophil, Table 1) [µM]
1 | O=C(N[C@@H](Cc1c[nH]c2ccccc12)C(=O)N[C@@H](CO)Cc1ccccc1)c1ccccc1 [Compound 13b, N—(N-Benzoyl-L-tryptophanyl)-D-phenylalaninol] | 120 to 122 | > 30 | > 30 | – | –
2 | COC(=O)[C@@H](Cc1ccccc1)NC(=O)[C@H](Cc1c[nH]c2ccccc12)NC(=O)c1ccc(OC)cc1 [Compound 7, N—(N-4-Methoxylbenzoyl-L-tryptophanyl)-D-phenylalanine methyl ester] | 151 to 153 | – | – | > 30 | > 30
3 | COC(=O)[C@@H](Cc1ccccc1)NC(=O)[C@H](Cc1c[nH]c2ccccc12)NC(=O)Cc1ccccc1 [Compound 8, N—(N-Phenylacetyl-L-tryptophanyl)-D-phenylalanine methyl ester] (PhAc-Trp-[dF]-OMe) | 182 to 184 | – | – | 5.71 ± 0.39 | 10.2 ± 4.53
